A short description of data set [1]: Assay C: Permeability in CACO-2 cells. It counts as in vitro ADME. The settings on record: human, pH 7.2; for efflux ratio: Caco-2, permeability B−A/permeability A−B; for Papp A→B: Caco-2, apical to basolateral. The method, then: Caco-2 cells (1-2×10^5 cells/1 cm^2 area) are seeded on filter inserts (Costar transwell polycarbonate or PET filters, 0.4 μm pore size) and cultured (DMEM) for 10 to 25 days. Compounds are dissolved in appropriate solvent (like DMSO, 1-20 mM stock solutions). […] The transport solution (TL) is applied to the apical or basolateral donor side for measuring A-B or B-A permeability (3 filter replicates), respectively. Samples are collected at the start and end of experiment from the donor and at various time intervals for up to 2 hours also from the receiver side for concentration measurement by HPLC-MS/MS or scintillation counting. Sampled receiver volumes are replaced with fresh receiver solution.
Efflux ratio (ER)=permeability B−A/permeability A−B

Data set [2] has as its system SIRPα signalling induced by Raji cells. In words: Assay B: SIRPα signalling assay using Raji cells. In kind it is cell-based. As to conditions: Homo sapiens, 48 h compound incubation, Jurkat PathHunter SIRPaV1 reporter cells, read-out: Inhibition of SIRPα signalling induced by Raji cells: IC50. The method, then:
(§1) Two cell types are independently used: the Raji cell line (lymphoblast-like human cell line derived from B lymphocytes from a Burkitt's lymphoma patient in 1963) and A549 cells (adenocarcinoma human alveolar basal epithelial cells).
(§2) Test compounds were dissolved in 100% DMSO and serially diluted into a white 384-well microtiter cell culture plate (PerkinElmer #60076780 in case of Raji assay; PDL-coated plates Greiner #781945 in case of A549 assay), 5000 Raji cells (ATCC #CC86) or 5000 A549 cells (ATCC #CCL-185) in Assay Complete Cell Plating reagent 30 (DiscoverX 93-0563R30B) were added per well. The assay plate was incubated for 48 h at 37° C., 95% humidity and 5% CO2. 15000 reporter cells (Jurkat PathHunter SIRPaV1, DiscoverX #93-1135C19) were added to each well, and the plate was incubated for 5 h at 37° C., 95% humidity and 5% CO2. Bioassay reagent 1 of the PathHunter Bioassay detection kit (DiscoverX 93-0001) was added to each well of the plate using a multichannel pipette followed by a 15 min incubation at room temperature. Afterwards bioassay reagent 2 was added followed by 60 min incubation at room temperature (incubation in the dark). The analysis of the data was performed using the luminescence signal generated by beta-galactosidase in the PathHunter reporter cell line. The luminescence measurement was done using a Pherastar Multi-Mode Reader. Dose-response curves & IC50 data were calculated with 4-parameter sigmoidal dose response formula.

A further data set addresses T1, QPCTL (Homo sapiens, UniProt Q9NXS2).
T1 construct: made in house
Nature of the data set: Assay A: biochemical QPCTL activity assay (MALDI-TOF MS, CD47 peptide substrate). As to conditions: 0.5 nM enzyme, 10 μM CD47 peptide substrate; read-out: Inhibition of QPCTL: IC50. Here is the method:
(§3) QPCT or QPCTL dependent conversion of N-terminal glutamine to pyroglutamate of CD47 was monitored via MALDI-TOF MS. Test compounds were dissolved in 100% DMSO and serially diluted into clear 1,536-well microtiter plates. Enzymatic reactions were set up in assay buffer containing 20 mM Tris pH 7.5, 0.1 mM TCEP, 0.01% BSA, and 0.001% Tween20. […] The plates were incubated for 10 min in a humidified incubator at 24° C. Subsequently, 2.5 µL of CD47 peptide substrate surrogate (^19[…]^33) was added to each well (final concentration: 10 μM for QPCTL/20 μM for QPCT). The plates were mixed for 30 sec at 1,000 rpm and subsequently incubated for 40 min in a humidified incubator at 24° C. […] The plates were sealed with an adhesive foil, mixed for 30 s at 1,000 rpm and stored at room temperature until preparation of the MALDI target plates. MALDI target plates were prepared as described previously. […] QPCT or QPCTL activity was monitored by calculating the ratio between product and internal standard signals followed by normalization to high (100% activity) and low (0% activity) controls. Determination of compound potencies was obtained by fitting the dose-response data to a four-parameter logistical equation.

Another data set concerns the target T2, QPCT (Homo sapiens, UniProt Q16769).
T2 construct: purchased Origine (so in the source)
In words: Assay A: biochemical QPCT activity assay (MALDI-TOF MS, CD47 peptide substrate). As to conditions: 0.5 nM enzyme, 20 μM CD47 peptide substrate; read-out: Inhibition of QPCT: IC50. Here is the method:
as §3

For data set [3], the system named is SIRPα signalling induced by A549 cells. In words: Assay B: SIRPα signalling assay using A549 cells. As to conditions: Homo sapiens, 48 h compound incubation, Jurkat PathHunter SIRPaV1 reporter cells, read-out: Inhibition of SIRPα signalling induced by A549 cells: IC50. In kind it is cell-based. Here is the method: as §1, §2

These results are taken from US20240317712A1, “[…] DERIVATIVES AS INHIBITORS OF […]-PEPTIDE CYCLOTRANSFERASE AND […]-PEPTIDE CYCLOTRANSFERASE LIKE PROTEIN” (Boehringer Ingelheim International GmbH, priority 2023, published 2024).

T1 sequence (Q9NXS2 whole entry): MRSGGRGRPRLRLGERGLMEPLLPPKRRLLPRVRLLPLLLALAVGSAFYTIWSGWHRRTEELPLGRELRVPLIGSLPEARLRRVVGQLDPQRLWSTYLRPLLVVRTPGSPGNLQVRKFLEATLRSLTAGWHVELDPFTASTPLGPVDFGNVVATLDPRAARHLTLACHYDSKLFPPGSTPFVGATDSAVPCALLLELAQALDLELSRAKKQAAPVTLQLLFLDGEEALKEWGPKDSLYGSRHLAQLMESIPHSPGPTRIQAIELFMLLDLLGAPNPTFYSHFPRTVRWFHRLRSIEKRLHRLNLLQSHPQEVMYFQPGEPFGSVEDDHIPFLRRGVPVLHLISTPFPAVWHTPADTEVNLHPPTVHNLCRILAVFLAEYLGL
T2 sequence (Q16769 29-361): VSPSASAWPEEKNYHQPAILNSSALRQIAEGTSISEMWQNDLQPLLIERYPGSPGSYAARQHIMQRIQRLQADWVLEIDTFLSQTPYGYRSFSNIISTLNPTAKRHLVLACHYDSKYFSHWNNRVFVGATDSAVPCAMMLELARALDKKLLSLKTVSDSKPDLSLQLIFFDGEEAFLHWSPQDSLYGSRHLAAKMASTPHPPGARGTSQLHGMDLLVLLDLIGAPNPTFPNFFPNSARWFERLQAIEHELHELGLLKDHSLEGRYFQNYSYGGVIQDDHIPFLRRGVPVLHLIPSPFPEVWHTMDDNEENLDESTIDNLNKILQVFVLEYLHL

Usually efflux ratio stands for the permeability from basolateral to apical divided by that in the opposite direction, in the common usage. By Papp A→B is commonly meant the apparent permeability from the apical to the basolateral side of a cell layer. Read a low Papp A→B as slow passage. Broadly, the IC50 is the concentration at which inhibition is half-maximal. `Cn1cnnc1C1(F)CCN(c2c(C#N)cc(C(F)(F)F)cc2-c2cnc3nn(C(C)(C)C)cc3c2)CC1` [Example 1]: the efflux ratio in data set [1] was 3.2. The Papp A→B in data set [1] is 25 ×10⁻⁶ cm/s. Also, the IC50 in data set [2] worked out at 0.005 µM; at QPCTL it was 0.001 µM; at QPCT, 0.001 µM; in data set [3] it was 0.011 µM.

Regarding `Cn1cnnc1C1(F)CCN(c2c(C#N)cc(C(F)(F)F)cc2-c2cnc3nc(C(C)(C)C)nn3c2)CC1` [Example 2], in data set [1], the efflux ratio worked out at 6.9. For the same compound, the Papp A→B in data set [1] was 8.9 ×10⁻⁶ cm/s. The IC50 in data set [2] was 0.014 µM; at QPCTL, 0.002 µM; at QPCT it was 0.001 µM; in data set [3], 0.007 µM.

With `Cn1cnnc1C1CCN(c2c(C#N)cc(C(F)(F)F)cc2-c2ccc(F)nc2)CC1` [Example 3], in data set [1], the efflux ratio was 10.4. In data set [1], the Papp A→B is 9 ×10⁻⁶ cm/s. Further, the IC50 in data set [2] came out at 0.019 µM; at QPCTL, 0.003 µM; on QPCT, 0.012 µM; in data set [3] it was 0.012 µM.

Turning to `Cn1cnnc1C1(F)CCN(c2c(C#N)cc(C(F)(F)F)cc2-c2ccc(F)nc2)CC1` [Example 4], the efflux ratio in data set [1] was 1.3. The Papp A→B in data set [1] was found to be 40.5 ×10⁻⁶ cm/s. For the same compound, the IC50 in data set [2] came to 0.017 µM; at QPCTL it was 0.002 µM; on QPCT it was 0.004 µM; in data set [3] it was 0.012 µM.

For `Cn1cnnc1C1(F)CCN(c2c(C#N)cc(C(F)(F)F)cc2-c2ccnnc2)CC1` [Example 5], in data set [1], the efflux ratio came out at 10.3. Also, in data set [1], the Papp A→B worked out at 3.3 ×10⁻⁶ cm/s. For the same compound, the IC50 in data set [2] is 0.019 µM; at QPCTL it was 0.002 µM; at QPCT it was 0.003 µM; in data set [3], 0.021 µM.

Regarding `Cn1cnnc1C1(F)CCN(c2c(C#N)cc(F)cc2-c2ccc(F)nc2)CC1` [Example 6], the efflux ratio in data set [1] was determined as 1.6. In data set [1], this compound came in with a Papp A→B of 44 ×10⁻⁶ cm/s. Further, the IC50 in data set [2] is 0.047 µM; on QPCTL, 0.003 µM; at QPCT, 0.004 µM; in data set [3], 0.016 µM.

Regarding `Cn1cnnc1C1CCN(c2c(C#N)cc(F)cc2-c2ccc(F)nc2)CC1` [Example 7], the efflux ratio in data set [1] was determined as 2.1. In data set [1], the Papp A→B is 24 ×10⁻⁶ cm/s. In addition, the concentration for half-maximal inhibition (IC50) in data set [2] was found to be 0.048 µM; on QPCTL, 0.002 µM; on QPCT, 0.01 µM; in data set [3], 0.018 µM.

As to `COc1ccc(C#N)c(N2CCC(c3nncn3C)CC2)c1-c1ccc(F)nc1` [Example 8], in data set [1], the efflux ratio was 4.4. In data set [1], the Papp A→B stood at 8.5 ×10⁻⁶ cm/s. Also, the IC50 was 0.044 µM in data set [2], 0.001 µM on QPCTL, 0.003 µM at QPCT and 0.011 µM in data set [3].

As to `COc1ccc(C#N)c(N2CCC(F)(c3nncn3C)CC2)c1-c1ccc(F)nc1` [Example 9], the efflux ratio in data set [1] was 1.9. The Papp A→B in data set [1] came out at 28 ×10⁻⁶ cm/s. The IC50 in data set [2] stood at 0.035 µM; at QPCTL, 0.001 µM; at QPCT it was 0.001 µM; in data set [3], 0.006 µM.

As for `CC(C)Oc1ccc(C#N)c(N2CCC(c3nncn3C)CC2)c1-c1ccc(F)nc1` [Example 10], the efflux ratio in data set [1] came to 2.4. The Papp A→B in data set [1] came to 30 ×10⁻⁶ cm/s. Besides, the IC50 was 0.052 µM in data set [2], 0.001 µM on QPCTL, 0.001 µM on QPCT and 0.009 µM in data set [3].

As to `Cn1cnnc1C1CCN(c2c(C#N)ccc(OCC3CC3)c2-c2ccc(F)nc2)CC1` [Example 11], the efflux ratio in data set [1] was found to be 3.2. Besides, the Papp A→B in data set [1] was determined as 28 ×10⁻⁶ cm/s. Moreover, the IC50 is 0.044 µM in data set [2], 0.001 µM on QPCTL, 0.002 µM at QPCT and 0.043 µM in data set [3].

Take `Cn1cnnc1C1CCN(c2c(C#N)ccc(OCc3ccccc3)c2-c2ccc(F)nc2)CC1` [Example 12]: the efflux ratio in data set [1] turned out to be 2.6. Further, in data set [1], the apical-to-basolateral permeability (Papp A→B) was determined as 19 ×10⁻⁶ cm/s. Also, the IC50 worked out at 0.02 µM in data set [2], 0.001 µM on QPCTL, 0.001 µM on QPCT and 0.014 µM in data set [3].

For the compound `Cn1cnnc1C1CCN(c2c(C#N)ccc(OC(F)F)c2-c2ccc(F)nc2)CC1` [Example 13], the efflux ratio in data set [1] is 3.6. In data set [1], this compound gave a Papp A→B of 9.1 ×10⁻⁶ cm/s. Also, the IC50 in data set [2] came to 0.096 µM; at QPCTL, 0.002 µM; at QPCT, 0.002 µM; in data set [3] it was 0.027 µM.

Take `Cn1cnnc1C1CCN(c2c(-c3ccc(F)nc3)ccc(F)c2C#N)CC1` [Example 14]: the efflux ratio in data set [1] was 6.7. This compound also yielded a Papp A→B in data set [1] of 9.6 ×10⁻⁶ cm/s. Moreover, the IC50 in data set [2] was determined as 0.124 µM; at QPCTL, 0.002 µM; on QPCT it was 0.011 µM; in data set [3], 0.024 µM.

As to `COC(=O)c1cc(C#N)c(N2CCC(c3nncn3C)CC2)c(-c2ccc(F)nc2)c1` [Example 15], the efflux ratio in data set [1] was found to be 9.2. In data set [1], this compound yielded a Papp A→B of 5.3 ×10⁻⁶ cm/s. The IC50 in data set [2] was determined as 0.312 µM; on QPCTL, 0.003 µM; on QPCT it was 0.012 µM; in data set [3] it was 0.218 µM.

`Cn1cnnc1C1CCN(c2c(C#N)cc(Cl)cc2-c2ccc(F)nc2)CC1` [Example 16]: the efflux ratio in data set [1] was 3.3. The same compound returned a Papp A→B in data set [1] of 23 ×10⁻⁶ cm/s. For the same compound, the IC50 in data set [2] stood at 0.03 µM; on QPCTL it was 0.002 µM; on QPCT, 0.008 µM; in data set [3] it was 0.018 µM.

As to `Cn1cnnc1C1CCN(c2c(C#N)cc(Cl)cc2-c2cnc3nn(C(C)(C)C)cc3c2)CC1` [Example 17], the efflux ratio in data set [1] came to 21.2. The Papp A→B in data set [1] is 2.5 ×10⁻⁶ cm/s. Moreover, the IC50 in data set [2] came to 0.017 µM; at QPCTL, 0.001 µM; on QPCT, 0.001 µM; in data set [3], 0.005 µM.

`Cn1cnnc1C1(F)CCN(c2c(C#N)cc(Cl)cc2-c2ccc(F)nc2)CC1` [Example 18]: in data set [1], the efflux ratio was determined as 1. The compound further returned a Papp A→B in data set [1] of 66 ×10⁻⁶ cm/s. In addition, the IC50 in data set [2] came out at 0.036 µM; on QPCTL, 0.002 µM; on QPCT, 0.004 µM; in data set [3], 0.024 µM.

Take `Cn1cnnc1C1(F)CCN(c2c(C#N)cc(Cl)cc2-c2cnc3nn(C(C)(C)C)cc3c2)CC1` [Example 19]: in data set [1], the efflux ratio is 4.5. This compound also registered a Papp A→B in data set [1] of 18 ×10⁻⁶ cm/s. In addition, the IC50 in data set [2] was 0.009 µM; on QPCTL it was 0.001 µM; on QPCT it was 0.001 µM; in data set [3], 0.009 µM.

On to `Cn1cnnc1C1(F)CCN(c2c(-c3cnc4nn(C(C)(C)C)cc4c3)ccc(OCCC(C)(C)O)c2C#N)CC1` [Example 34], for which the IC50 in data set [2] was 0.036 µM; at QPCTL, 0.001 µM; in data set [3], 0.073 µM.

For `Nc1ncc(C2CCN(c3ncccc3-c3ccc(F)nc3)CC2)s1` [Prior art Compound 1094, reference compound], the IC50 at QPCTL is 0.111 µM; on QPCT, 1.71 µM; in data set [3] it was 3.06 µM.

`Nc1nnc(C2CCN(c3ncccc3-c3ccc(F)nc3)CC2)s1` [Prior art Compound 1095, reference compound]: the IC50 was found to be 0.013 µM on QPCTL and 0.26 µM at QPCT.

`Cn1cnnc1C1CCN(c2ncccc2-c2cccnc2)CC1` [SEN180, reference compound]: on QPCT, the IC50 worked out at 0.176 µM.
